Values quoted from earlier work as cited in paper PMC3160894, “Isolation and Characterization of CvIV4: A Pain Inducing α- Scorpion Toxin” (PLoS ONE, 2011).

test system: Nav1.7; settings: ref [19], [20]
Source text: Given that buthid scorpions produce toxins that bind Na^+ channels in excitable membranes, it is plausible that their venom induces pain by initiating action potentials in nociceptors. Because some human pain disorders involve Na^+ channels expressed in nociceptors, [15], there has been an effort, albeit limited, to determine the components in buthid venom that induce pain with the goal of isolating peptides that discriminate among the DRG-expressed VGSCs. […] Because β-toxins make Na^+ channel ... || CvIV4 also slowed the fast inactivation and produced a persistent Na^+ current in rNav1.2, rNav1.3 and rNav1.4. […] Given that CvIV4 and CeII8 are similar in structure but differ in function and isoform selectivity, a comparison of these two toxins should improve our understanding of the structural characteristics that determine New World scorpion toxin selectivity and function.

| Substance | Effect on fast inactivation of Nav1.7 |
| --- | --- |
| LqhIII: α-toxin from Leiurus quinquestriatus hebraeus; GenBank P59355 | slow the fast inactivation of Nav1.7 |
| AahII: α-toxin from Androctonus australis Hector; GenBank P01484 | slow the fast inactivation of Nav1.7 |
| ODI: α-toxin from Odonthobuthus doriae; GenBank P84646 | slow the fast inactivation of Nav1.7 |
